Measured values from the supplement of paper PMC10307832.

Key:
Assay in all cases: relative viability (nuclei count vs DMSO), 5 days (fraction); higher = more cells survive
[1] = compound: CCOc1cc2ncc(C#N)c(Nc3ccc(OCc4ccccn4)c(Cl)c3)c2cc1NC(=O)/C=C/CN(C)C [Neratinib] + CC(C)C[C@H](NC(=O)[C@H](Cc1ccccc1)NC(=O)c1cnccn1)B(O)O [Bortezomib] (partner 0.002 µM)
Outline: (§1)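 Medians of duplicate plates are given as relative viability. That measure is the nuclei count in treated wells divided by the count in vehicle wells. Counts were taken on 4× images of lung cancer cell lines in 1536-well plates, 5 days after pin-tool dosing the day after seeding with one drug alone or a fixed anchor-drug dose plus five library-drug doses (not always all listed) in √10 steps.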

[2] = compound: CCOc1cc2ncc(C#N)c(Nc3ccc(OCc4ccccn4)c(Cl)c3)c2cc1NC(=O)/C=C/CN(C)C [Neratinib] + CCNC(=O)c1noc(-c2cc(C(C)C)c(O)cc2O)c1-c1ccc(CN2CCOCC2)cc1 [Luminespib] (partner 0.01 µM)
Outline: as §1

[3] = compound: CCOc1cc2ncc(C#N)c(Nc3ccc(OCc4ccccn4)c(Cl)c3)c2cc1NC(=O)/C=C/CN(C)C [Neratinib] + CC(=O)c1c(C)c2cnc(Nc3ccc(N4CCNCC4)cn3)nc2n(C2CCCC2)c1=O [Palbociclib] (partner 0.5 µM)
Outline: as §1

[4] = compound: CCOc1cc2ncc(C#N)c(Nc3ccc(OCc4ccccn4)c(Cl)c3)c2cc1NC(=O)/C=C/CN(C)C [Neratinib] + Cc1nc(Nc2ncc(C(=O)Nc3c(C)cccc3Cl)s2)cc(N2CCN(CCO)CC2)n1 [Dasatinib] (partner 0.075 µM)
Outline: as §1

Row | Cell Line | relative viability ([1]; first compound 0.01 µM) | relative viability ([1]; first compound 0.03162 µM) | relative viability ([1]; first compound 0.3162 µM) | relative viability ([1]; first compound 1 µM) | relative viability ([2]; first compound 0.01 µM) | relative viability ([2]; first compound 0.03162 µM) | relative viability ([2]; first compound 0.1 µM) | relative viability ([2]; first compound 0.3162 µM) | relative viability ([2]; first compound 1 µM) | relative viability ([3]; first compound 0.01 µM) | relative viability ([3]; first compound 0.03162 µM) | relative viability ([3]; first compound 0.1 µM) | relative viability ([3]; first compound 0.3162 µM) | relative viability ([3]; first compound 1 µM) | relative viability ([4]; first compound 0.01 µM) | relative viability ([4]; first compound 0.03162 µM) | relative viability ([4]; first compound 0.1 µM) | relative viability ([4]; first compound 0.3162 µM) | relative viability ([4]; first compound 1 µM) | relative viability ([1]; first compound 0.1 µM)
1 | NCI-H2087 | 0.775 | 0.867 | 0.782 | 0.857 | 0.16 | 0.172 | 0.151 | 0.14 | 0.148 | 0.212 | 0.271 | 0.217 | 0.182 | 0.14 | 0.936 | 0.888 | 0.605 | 0.584 | 0.373 | –
2 | SK-LU-1 | 1.3 | 1.5 | 1.14 | 0.504 | 0.187 | 0.213 | 0.192 | 0.178 | 0.176 | 0.389 | 0.447 | 0.376 | 0.373 | 0.288 | 0.174 | 0.175 | 0.168 | 0.195 | 0.173 | 1.34
3 | NCI-H2342 | – | – | – | – | 0.72 | 0.717 | 0.712 | 0.621 | – | 0.52 | 0.493 | 0.534 | – | 0.454 | 0.326 | 0.318 | 0.285 | 0.26 | 0.318 | –
4 | A-427 | 1.08 | 0.996 | 0.952 | 0.918 | 1.23 | 0.966 | 0.778 | 1.02 | 0.274 | 0.554 | 0.576 | 0.565 | 0.488 | 0.513 | 0.895 | 0.74 | 0.734 | 0.673 | 0.571 | 1.02
5 | H3255 | 0.776 | 0.97 | 0.225 | 0.233 | 0.949 | 0.765 | 0.669 | 0.387 | 0.211 | 0.304 | 0.324 | 0.305 | 0.256 | 0.201 | 0.38 | 0.392 | 0.283 | 0.195 | – | 0.556
6 | HCC-44 | 0.997 | 0.954 | 0.931 | 0.952 | 1.29 | 1.23 | 0.989 | 1.07 | 0.524 | 1.02 | 0.969 | – | 0.926 | 0.966 | – | – | – | – | – | 0.78
7 | NCI-H1734 | 1.27 | 0.996 | 0.934 | 0.74 | 0.202 | 0.206 | 0.169 | 0.204 | 0.153 | 0.409 | 0.395 | 0.241 | 0.328 | 0.28 | 0.475 | 0.466 | 0.424 | 0.38 | 0.345 | 0.912
8 | NCI-H23 | 0.964 | 1.31 | 1.13 | 0.821 | 0.201 | 0.231 | 0.203 | 0.225 | 0.204 | 0.48 | 0.579 | 0.482 | 0.563 | 0.318 | 0.695 | 0.876 | 0.779 | 0.825 | 0.537 | 1.07
9 | ABC-1 | 0.297 | 0.348 | 0.3 | 0.312 | 0.337 | 0.659 | 0.405 | 0.315 | 0.278 | 0.618 | 0.721 | 0.472 | 0.587 | 0.486 | 0.638 | – | 0.593 | 0.455 | 0.349 | 0.379
10 | COR-L23 | 1.06 | 1.18 | 0.964 | 0.799 | – | 0.621 | 0.598 | 0.606 | 0.257 | 0.328 | 0.333 | 0.275 | 0.255 | 0.216 | 0.558 | 0.602 | 0.489 | 0.439 | 0.308 | 0.888
11 | PC-14 | 0.88 | 0.86 | 0.918 | 0.158 | 0.176 | 0.129 | 0.156 | 0.116 | 0.129 | 0.625 | 0.672 | 0.474 | 0.0909 | 0.0675 | 0.22 | 0.265 | 0.195 | 0.0282 | 0.0541 | 0.741
12 | NCI-H358 | – | – | – | – | 0.301 | 0.518 | 0.279 | 0.108 | 0.12 | 0.143 | 0.112 | 0.125 | 0.12 | 0.129 | 0.131 | 0.131 | 0.104 | 0.146 | 0.126 | –
13 | EBC-1 | 0.599 | 0.569 | 0.533 | 0.349 | – | – | – | – | – | – | – | – | – | – | – | – | – | – | – | 0.541
14 | SK-MES-1 | – | – | – | – | 1.08 | 0.437 | 0.428 | 0.267 | 0.187 | 0.3 | 0.327 | 0.329 | 0.281 | 0.247 | 0.375 | 0.25 | 0.163 | 0.14 | 0.14 | –
15 | NCI-H596 | – | 1.32 | 1.08 | 0.843 | 1.04 | 1.04 | 1.02 | 1.02 | 0.758 | – | – | – | – | – | – | 0.659 | 0.749 | 0.5 | 0.436 | 1.12
16 | NCI-H1648 | – | – | – | – | – | – | – | – | – | 0.29 | 0.265 | 0.231 | 0.26 | 0.337 | – | – | – | – | – | –
17 | NCI-H1703 | 0.335 | 0.345 | 0.233 | 0.18 | – | – | – | – | – | – | – | – | – | – | – | – | – | – | – | 0.394
18 | NCI-H1944 | – | – | – | – | – | 0.669 | – | 0.523 | 0.306 | 0.365 | 0.32 | 0.264 | 0.241 | 0.247 | 0.201 | 0.211 | 0.193 | 0.205 | 0.181 | –
19 | NCI-H1563 | 0.812 | – | 0.752 | 0.647 | 0.57 | 0.498 | 0.488 | 0.503 | 0.484 | – | – | – | – | – | 0.513 | 0.485 | 0.499 | 0.41 | 0.332 | 0.685
20 | NCI-H1395 | – | – | – | – | 0.59 | – | 0.903 | 0.814 | 0.418 | 0.66 | 0.709 | 0.63 | 0.58 | 0.414 | 0.406 | 0.388 | 0.458 | 0.413 | 0.318 | –
21 | NCI-H2170 | – | – | – | – | 0.727 | 0.637 | 0.365 | 0.271 | 0.304 | 0.361 | 0.352 | 0.199 | 0.144 | 0.151 | 0.527 | 0.563 | 0.283 | 0.176 | 0.196 | –
